ChEMBL document CHEMBL3885861, “Open TG-GATES”

Species on record: Rattus norvegicus
Experiment: Open TG-GATES - Regimen: Single
Type: toxicity, organism-based, Sprague-Dawley
Set-up: regimen Single, gender Male, age 6 weeks
Conditions: in vivo, po, 150 mg/kg, route gavage, dose level High; for APTT / Bas / Eos / Fbg / Hb / Ht / Lym / MCH / MCHC / MCV / Mono / Neu / PT / Plat / RBC / Ret / WBC: tissue Blood; for KIDNEY_L / KIDNEY_R / KIDNEY_TOTAL: tissue Kidney; for LIVER: tissue Liver; for A/G / ALP / ALT / AST / BUN / CRE / Ca / Cl / DBIL / GLC / IP / K / LDH / Na / PL / RALB / TBIL / TC / TG / TP / gamma-GTP: tissue Plasma

For `Nc1nc(N)c2nc(-c3ccccc3)c(N)nc2n1`, the TERMINAL_BW (3 h) was 213.5 g, the APTT (3 h) was 17.4 s and the Bas (3 h) was 0.4%. It also gave an Eos (3 h) of 0.8%, a Fbg (3 h) of 303.6 mg/dL and a Hb (3 h) of 14.2 g/dL. It also gave a Ht (3 h) of 42.4%, a Lym (3 h) of 77.2% and an MCH (3 h) of 21.3 pg. The MCHC (3 h) was 33.4%, the MCV (3 h) was 63.7 fL and the Mono (3 h) was 3.2%. For the same molecule, the Neu (3 h) was 17.6%, the PT (3 h) was 14 s and the Plat (3 h) was 128.5 x10_4/uL. It also gave an RBC (3 h) of 666 x10_4/ul, a Ret (3 h) of 7.5% and a WBC (3 h) of 118.9 x10_2/uL. For the same molecule, the KIDNEY_L (3 h) was 1 g, the KIDNEY_R (3 h) was 1 g and the KIDNEY_TOTAL (3 h) was 2 g. The LIVER (3 h) was 9.5 g, the A/G (3 h) was 1 and the ALP (3 h) was 1286.4 IU/L. The ALT (3 h) was 36.6 IU/L, the AST (3 h) was 71 IU/L and the BUN (3 h) was 12.8 mg/dL. For the same molecule, the CRE (3 h) was 0.2 mg/dL, the Ca (3 h) was 10.8 mg/dL and the Cl (3 h) was 105.8 meq/L. The DBIL (3 h) was 0.01 mg/dL, the GLC (3 h) was 166.4 mg/dL and the IP (3 h) was 8.6 mg/dL. The K (3 h) was 5.2 meq/L, the LDH (3 h) was 56.2 IU/L and the Na (3 h) was 141 meq/L. It also gave a PL (3 h) of 142.6 mg/dL, an RALB (3 h) of 2.7 g/dL and a TBIL (3 h) of 0.06 mg/dL. It also gave a TC (3 h) of 77.6 mg/dL, a TG (3 h) of 67.2 mg/dL and a TP (3 h) of 5.5 g/dL. It also gave a gamma-GTP (3 h) of 1 IU/L, a TERMINAL_BW (6 h) of 206.9 g and an APTT (6 h) of 17.1 s. For the same molecule, the Bas (6 h) was 0%, the Eos (6 h) was 1% and the Fbg (6 h) was 349 mg/dL. The Hb (6 h) was 14.4 g/dL, the Ht (6 h) was 43.7% and the Lym (6 h) was 74.4%. For the same molecule, the MCH (6 h) was 20.9 pg, the MCHC (6 h) was 33% and the MCV (6 h) was 63.3 fL. It also gave a Mono (6 h) of 2.8%, a Neu (6 h) of 20.8% and a PT (6 h) of 13.9 s. It also gave a Plat (6 h) of 123.5 x10_4/uL, an RBC (6 h) of 690.6 x10_4/ul and a Ret (6 h) of 7.5%. The WBC (6 h) was 94.4 x10_2/uL, the KIDNEY_L (6 h) was 1 g and the KIDNEY_R (6 h) was 1 g. For the same molecule, the KIDNEY_TOTAL (6 h) was 1.9 g, the LIVER (6 h) was 9.1 g and the A/G (6 h) was 1. It also gave an ALP (6 h) of 1417.8 IU/L, an ALT (6 h) of 37.8 IU/L and an AST (6 h) of 76.6 IU/L. The BUN (6 h) was 11.8 mg/dL, the CRE (6 h) was 0.2 mg/dL and the Ca (6 h) was 10.9 mg/dL. The Cl (6 h) was 105.8 meq/L, the DBIL (6 h) was 0.01 mg/dL and the GLC (6 h) was 169.6 mg/dL. The IP (6 h) was 9.4 mg/dL, the K (6 h) was 5.3 meq/L and the LDH (6 h) was 65.2 IU/L. The Na (6 h) was 140 meq/L, the PL (6 h) was 150.6 mg/dL and the RALB (6 h) was 2.8 g/dL. It also gave a TBIL (6 h) of 0.058 mg/dL, a TC (6 h) of 80.8 mg/dL and a TG (6 h) of 55.6 mg/dL. It also gave a TP (6 h) of 5.8 g/dL, a gamma-GTP (6 h) of 1 IU/L and a TERMINAL_BW (9 h) of 205.8 g. For the same molecule, the APTT (9 h) was 17.3 s, the Bas (9 h) was 0.2% and the Eos (9 h) was 1%. It also gave a Fbg (9 h) of 347 mg/dL, a Hb (9 h) of 14.4 g/dL and a Ht (9 h) of 43.5%. For the same molecule, the Lym (9 h) was 71.4%, the MCH (9 h) was 20.9 pg and the MCHC (9 h) was 33.1%. The MCV (9 h) was 63.1 fL, the Mono (9 h) was 2.2% and the Neu (9 h) was 25%. It also gave a PT (9 h) of 13.9 s, a Plat (9 h) of 118.6 x10_4/uL and an RBC (9 h) of 689.4 x10_4/ul. It also gave a Ret (9 h) of 7.6%, a WBC (9 h) of 77.8 x10_2/uL and a KIDNEY_L (9 h) of 1 g. The KIDNEY_R (9 h) was 1 g, the KIDNEY_TOTAL (9 h) was 2 g and the LIVER (9 h) was 8.3 g. The A/G (9 h) was 1, the ALP (9 h) was 1443.6 IU/L and the ALT (9 h) was 35.2 IU/L. The AST (9 h) was 73.4 IU/L, the BUN (9 h) was 12.6 mg/dL and the CRE (9 h) was 0.2 mg/dL. It also gave a Ca (9 h) of 11.1 mg/dL, a Cl (9 h) of 105.4 meq/L and a DBIL (9 h) of 0.01 mg/dL. For the same molecule, the GLC (9 h) was 165.2 mg/dL, the IP (9 h) was 10.6 mg/dL and the K (9 h) was 5 meq/L. It also gave an LDH (9 h) of 57.8 IU/L, a Na (9 h) of 141.4 meq/L and a PL (9 h) of 139 mg/dL. The RALB (9 h) was 2.9 g/dL, the TBIL (9 h) was 0.066 mg/dL and the TC (9 h) was 79.4 mg/dL. For the same molecule, the TG (9 h) was 30.2 mg/dL, the TP (9 h) was 5.9 g/dL and the gamma-GTP (9 h) was 1.2 IU/L. The TERMINAL_BW (24 h) was 222.9 g, the APTT (24 h) was 17.6 s and the Bas (24 h) was 0.2%. For the same molecule, the Eos (24 h) was 0.8%, the Fbg (24 h) was 366.6 mg/dL and the Hb (24 h) was 14.4 g/dL. It also gave a Ht (24 h) of 42.7%, a Lym (24 h) of 80.8% and an MCH (24 h) of 21.7 pg. It also gave an MCHC (24 h) of 33.7%, an MCV (24 h) of 64.4 fL and a Mono (24 h) of 2.4%. It also gave a Neu (24 h) of 15.4%, a PT (24 h) of 13.7 s and a Plat (24 h) of 121.5 x10_4/uL. It also gave an RBC (24 h) of 662.8 x10_4/ul, a Ret (24 h) of 6.2% and a WBC (24 h) of 84.4 x10_2/uL. For the same molecule, the KIDNEY_L (24 h) was 1 g, the KIDNEY_R (24 h) was 1 g and the KIDNEY_TOTAL (24 h) was 2 g. It also gave an LIVER (24 h) of 10.2 g, an A/G (24 h) of 0.9 and an ALP (24 h) of 1697.4 IU/L. For the same molecule, the ALT (24 h) was 43 IU/L, the AST (24 h) was 67.4 IU/L and the BUN (24 h) was 18 mg/dL. It also gave a CRE (24 h) of 0.2 mg/dL, a Ca (24 h) of 11.2 mg/dL and a Cl (24 h) of 106.2 meq/L. It also gave a DBIL (24 h) of 0.01 mg/dL, a GLC (24 h) of 175.4 mg/dL and an IP (24 h) of 8.4 mg/dL. The K (24 h) was 4.4 meq/L, the LDH (24 h) was 66.6 IU/L and the Na (24 h) was 143.8 meq/L. It also gave a PL (24 h) of 158 mg/dL, an RALB (24 h) of 2.7 g/dL and a TBIL (24 h) of 0.038 mg/dL. It also gave a TC (24 h) of 85.2 mg/dL, a TG (24 h) of 96.6 mg/dL and a TP (24 h) of 5.6 g/dL. For the same molecule, the gamma-GTP (24 h) was 1 IU/L.
